According to ChEMBL document CHEMBL1201862, “PubChem BioAssay data set” (2004):
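Step 1: Grow cells in 96-well plates. Step 2: Expose to compound for 48 hours at 5 concentrations. Step 3: Interpolate endpoints linearly; if unreached, use highest concentration. Here, GI50 denotes the concentration required for 50% inhibition of growth.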 The source made the active and inactive calls. Cut-off read from the data, not from the text of the source: active = GI50 up to about 1.1 µM and inactive = higher.

Tests used:
Test in all cases: NCI tumour cell line growth inhibition, 48 h
SK-OV-3 = system: SK-OV-3
COLO 205 = system: COLO 205
SR = system: SR
RXF 393 = system: RXF 393
K562 = system: K562
Hs-578T = system: Hs-578T
ACHN = system: ACHN
SF-295 = system: SF-295
CCRF-CEM = system: CCRF-CEM
LOX IMVI = system: LOX IMVI
SNB-75 = system: SNB-75
UACC-257 = system: UACC-257
TK-10 = system: TK-10
PC-3 = system: PC-3
SK-MEL-5 = system: SK-MEL-5
HCT-116 = system: HCT-116
MCF7 = system: MCF7
RPMI-8226 = system: RPMI-8226
Malme-3M = system: Malme-3M
UO-31 = system: UO-31

| SMILES | GI50 (SK-OV-3) | GI50 (COLO 205) | GI50 (SR) | GI50 (RXF 393) | GI50 (K562) | GI50 (Hs-578T) | GI50 (ACHN) | GI50 (SF-295) | GI50 (CCRF-CEM) | GI50 (LOX IMVI) | GI50 (SNB-75) | GI50 (UACC-257) | GI50 (TK-10) | GI50 (PC-3) | GI50 (SK-MEL-5) | GI50 (HCT-116) | GI50 (MCF7) | GI50 (RPMI-8226) | GI50 (Malme-3M) | GI50 (UO-31) |
| --- | --- | --- | --- | --- | --- | --- | --- | --- | --- | --- | --- | --- | --- | --- | --- | --- | --- | --- | --- | --- |
| O=C(CC(=O)c1ccncc1)c1ccccc1 | > 100 µM (inactive) | > 100 µM (inactive) | 22.1 µM (inactive) | 81.3 µM (inactive) | 45.1 µM (inactive) | > 100 µM (inactive) | 67.6 µM (inactive) | > 83.8 µM (inactive) | 11.9 µM (inactive) | 31.8 µM (inactive) | > 63.8 µM (inactive) | > 85.7 µM (inactive) | > 94.8 µM (inactive) | > 77.8 µM (inactive) | 90.4 µM (inactive) | 75.2 µM (inactive) | > 77.6 µM (inactive) | 52.5 µM (inactive) | 40.3 µM (inactive) | > 74.5 µM (inactive) |
| CCOC(=O)/C1=C(\C)N(Cc2ccccc2)C(=O)c2ccccc2C(=O)c2c(O)ccc(O)c21 | > 100 µM (inactive) | > 100 µM (inactive) | > 100 µM (inactive) | 17.5 µM (inactive) | > 100 µM (inactive) | > 100 µM (inactive) | > 100 µM (inactive) | > 100 µM (inactive) | > 100 µM (inactive) | > 100 µM (inactive) | > 100 µM (inactive) | > 100 µM (inactive) | > 100 µM (inactive) | > 100 µM (inactive) | > 100 µM (inactive) | > 100 µM (inactive) | < 0.01 µM (active) | 66.7 µM (inactive) | > 100 µM (inactive) | > 100 µM (inactive) |
| CC(C)CCNC(=O)c1ccc(CNC(=O)/C=C/c2ccc3c(c2)-c2ccccc2C3)cc1 | 57.1 µM (inactive) | 88.1 µM (inactive) | 34.9 µM (inactive) | 39.1 µM (inactive) | 64.3 µM (inactive) | 26.9 µM (inactive) | 57.4 µM (inactive) | 30.7 µM (inactive) | 38.8 µM (inactive) | 50.6 µM (inactive) | 23.7 µM (inactive) | 95.9 µM (inactive) | 40 µM (inactive) | 42.9 µM (inactive) | 36.9 µM (inactive) | 59.8 µM (inactive) | > 100 µM (inactive) | 44 µM (inactive) | 17.3 µM (inactive) | 42 µM (inactive) |
| COc1cccc(Nc2nc(NNC(=O)Cc3ccccc3)nc(NNC(=O)c3ccncc3)n2)c1 | > 10 µM (inactive) | > 10 µM (inactive) | 6.62 µM (inactive) | > 100 µM (inactive) | > 10 µM (inactive) | > 10 µM (inactive) | > 100 µM (inactive) | > 100 µM (inactive) | > 10 µM (inactive) | 13.4 µM (inactive) | 53.5 µM (inactive) | > 10 µM (inactive) | > 10 µM (inactive) | 53.1 µM (inactive) | > 10 µM (inactive) | > 100 µM (inactive) | > 10 µM (inactive) | > 10 µM (inactive) | > 10 µM (inactive) | 6.32 µM (inactive) |
| Cc1ccc(NC(=O)C23CC4CC(CC(C4)C2)C3)c(C(=O)NNC(=O)c2ccc(Cl)cc2)c1 | 15.8 µM (inactive) | 27.2 µM (inactive) | 13.7 µM (inactive) | 15 µM (inactive) | 28.6 µM (inactive) | 4.3 µM (inactive) | 17.5 µM (inactive) | 22.9 µM (inactive) | 21.1 µM (inactive) | 17 µM (inactive) | < 0.01 µM (active) | 2.14 µM (inactive) | 17.7 µM (inactive) | 23.3 µM (inactive) | 18.4 µM (inactive) | 25.8 µM (inactive) | 17.4 µM (inactive) | 19 µM (inactive) | 18.3 µM (inactive) | 16.5 µM (inactive) |
| CC12OC1(C)C1C(=O)OCC1C2=O (stereo not given) | > 100 µM (inactive) | 37.4 µM (inactive) | 21 µM (inactive) | 31.8 µM (inactive) | 28.2 µM (inactive) | 22.1 µM (inactive) | 62.1 µM (inactive) | 83.8 µM (inactive) | 17.5 µM (inactive) | > 100 µM (inactive) | 99.3 µM (inactive) | > 100 µM (inactive) | > 100 µM (inactive) | 52.8 µM (inactive) | > 100 µM (inactive) | 66.4 µM (inactive) | 61.7 µM (inactive) | > 100 µM (inactive) | 17.6 µM (inactive) | > 100 µM (inactive) |
